Assay results reported in article PMC4052307, “Identification of Plakortide E from the Caribbean Sponge Plakortis halichondroides as a Trypanocidal Protease Inhibitor using Bioactivity-Guided Fractionation” (Marine Drugs, 2014).
pIC50: −log10 of the molar value. Values joined by “and” are separate entries in the source; they are usually repeats but may differ in a detail not shown here. Equal entries are not always repeated. Where two headings read alike, the source gives them in different places.

Legend:
Plasmodia = settings: cited from earlier work
rhodesain [1] = molecular target: T1, rhodesain (Trypanosoma brucei rhodesiense, UniProt Q95PM0); assay: rhodesain dilution assay (reversibility); assay type: biochemical; settings: preincubated 1 h with 10 fold IC50, then diluted 100 fold
Procedure: In order to study the inhibition mechanism of plakortide E, enzyme assays with various inhibitor and substrate concentrations were performed with cathepsin B to determine whether the inhibition is competitive with respect to the substrate. The IC50 values for cathepsin B were determined at three different substrate concentrations (50, 100, 200 μM). […] Therefore, we determined the time-dependency of inhibition by measuring IC50 values in correlation to incubation time of enzyme with the inhibitor added, prior to substrate addition. […] To address whether the inhibition is reversible or irreversible, further kinetic studies were performed as described by Copeland [19]. Dilution assays were performed and compared with K11777 [20], an irreversible vinylsulfone-based inhibitor of rhodesain. The enzyme rhodesain (100 fold concentration as used in the normal enzyme assays) was preincubated with the 10 fold IC50 concentration of the compound for one hour, which allows the formation of enzyme-inhibitor complexes and leads to total block of enzyme activity. […] In case of irreversible inhibition, dissociation of the complex cannot occur and no enzyme activity will be detected. […] This indicates a reversible inhibition by plakortide E. In summary, plakortide E was determined to be a non-competitive, reversible, inhibitor of cysteine proteases, in case of rhodesain slow-binding was observed.

[2] = tested on: trypomastigote forms of Trypanosoma brucei; assay: parasite growth assay against T. brucei; assay type: cell-based; settings: read-out: trypanocidal activity IC50
rhodesain [3] = molecular target: T1, rhodesain; assay: rhodesain enzyme assay; assay type: biochemical
cathepsin L = cathepsin L (Homo sapiens, UniProt P07711); assay: cathepsin L enzyme assay; assay type: biochemical
[4] = tested on: Leishmania major promastigotes; assay: assay on L. major promastigotes; assay type: cell-based
cathepsin B = cathepsin B (Homo sapiens, UniProt P07858); assay: cathepsin B enzyme assay; assay type: biochemical
SARS PLpro = assay type: biochemical, SARS coronavirus; settings: at 100 μg/mL (285.71 μM)
[5] = tested on: sarcoplasmic reticulum (SR) Ca2+ ATPase; parameters: method as in doi:10.1016/0040-4020(95)00856-X; settings: cited from earlier work
Candida albicans = assay: assay on C. albicans; assay type: cell-based
J774.1 macrophages = settings: at 100 μM

T1 sequence (Q95PM0 entry or part of it): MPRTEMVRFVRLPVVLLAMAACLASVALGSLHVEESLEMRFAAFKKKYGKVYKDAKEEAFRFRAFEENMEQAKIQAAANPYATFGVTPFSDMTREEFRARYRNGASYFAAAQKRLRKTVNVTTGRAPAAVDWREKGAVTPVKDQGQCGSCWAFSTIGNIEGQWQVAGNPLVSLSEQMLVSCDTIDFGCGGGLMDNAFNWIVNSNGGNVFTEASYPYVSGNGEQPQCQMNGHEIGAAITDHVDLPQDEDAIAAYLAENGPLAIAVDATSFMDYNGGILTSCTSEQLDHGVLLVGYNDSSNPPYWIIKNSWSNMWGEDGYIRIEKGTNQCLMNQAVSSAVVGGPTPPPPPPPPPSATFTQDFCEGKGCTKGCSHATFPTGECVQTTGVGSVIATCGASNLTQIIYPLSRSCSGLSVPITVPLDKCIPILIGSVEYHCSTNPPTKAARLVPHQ
Sequence of cathepsin L (P07711 114-333): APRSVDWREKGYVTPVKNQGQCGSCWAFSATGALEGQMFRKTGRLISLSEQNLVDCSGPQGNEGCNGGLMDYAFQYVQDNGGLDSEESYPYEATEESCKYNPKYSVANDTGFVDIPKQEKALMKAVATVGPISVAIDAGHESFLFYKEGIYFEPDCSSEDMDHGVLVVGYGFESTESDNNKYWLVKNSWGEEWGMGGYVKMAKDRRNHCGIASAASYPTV

In the case of CC/C=C/C(CC)C[C@@]1(C)C[C@@H](CC)[C@H](CC(=O)OC)OO1 (stereo partly shown) [3-epiplakortin], the “activity against Plasmodia” value (Plasmodia) is listed as “active”.

For CN1CCN(C(=O)N[C@@H](Cc2ccccc2)C(=O)N[C@H](/C=C/S(=O)(=O)c2ccccc2)CCc2ccccc2)CC1 [K11777, reference compound], the “reactivation of the enzyme (enzyme activity after dilution)” value (rhodesain [1]) was “no enzyme activity was detected”.

CC/C=C/[C@H](CC)C/C(C)=C/[C@@]1(CC)C[C@](/C=C/C(=O)O)(CC)OO1 [plakortide E] showed a pIC50 ([2]; after 48 h) of 5.30, a pIC50 ([2]; after 72 h) of 5.30 and an IC50 (rhodesain [3]; 5 min incubation of enzyme with inhibitor prior to substrate addition, read-out: IC50 rhodesain, time-dependency (converted)) of 257 µM. For the same compound, the IC50 (rhodesain [3]; 30 min incubation of enzyme with inhibitor prior to substrate addition, read-out: IC50 rhodesain, time-dependency (converted)) was 205 µM, the IC50 (rhodesain [3]; 60 min incubation of enzyme with inhibitor prior to substrate addition, read-out: IC50 rhodesain, time-dependency (converted)) was 77 µM and the IC50 (rhodesain [3]; [S] = 30.0 μM, read-out: IC50 rhodesain (converted)) was 124 µM and 126 µM. For the same compound, the inhibition of rhodesain (rhodesain [3]; at 100 μg/mL (285.71 μM)) was “Inhibition”, the “inhibition mechanism, rhodesain” value (rhodesain [3]; enzyme kinetic studies) was “non-competitive, slowly-binding, reversible inhibitor” and the “reactivation of the enzyme (enzyme activity after dilution)” value (rhodesain [1]) was “about 50%”. The pIC50 (cathepsin L; [S] = 6.25 μM) was 3.98, the “inhibition of cathepsin L” value (cathepsin L; at 100 μg/mL (285.71 μM)) was “Inhibition” and the “activity against Leishmania” value [4] was “did not show activity”. The “inhibition mechanism, cathepsin B” value (cathepsin B; IC50 at three substrate concentrations) was “non-competitive inhibition”, the “inhibition of cathepsin B” value (cathepsin B; at 100 μg/mL (285.71 μM)) was “Inhibition” and the pIC50 (cathepsin B; substrate concentration 50 μM) was 4.08 and 4.09. The pIC50 (cathepsin B; substrate concentration 100 μM) was 4.13 and 4.14, the pIC50 (cathepsin B; substrate concentration 200 μM) was 3.99 and the “inhibition of SARS PLpro” value (SARS PLpro) was “Inhibition”. The “SR Ca2+ ATPase activity” value [5] was “stimulate”, the “activity against Plasmodia” value (Plasmodia) was “inactive” and the “activity against Candida” value (Candida albicans) was “No activity”. For the same compound, the “cytotoxic effects against macrophages” value (J774.1 macrophages) was “no cytotoxic effects”.

For CC/C=C/[C@H](CC)C/C=C/[C@@]1(CC)C[C@H](CC)[C@H](CC(=O)O)OO1 [plakortide M], the “activity against Plasmodia” value (Plasmodia) is listed as “active”.

For CC/C=C/[C@H](CC)C[C@@]1(C)C[C@@H](CC)[C@@H](CC(=O)OC)OO1 [plakortin], the “activity against Plasmodia” value (Plasmodia) is listed as “active”.

For dihydroplakortin, the “activity against Plasmodia” value (Plasmodia) is listed as “active”.

In the case of plakortide Q, the “activity against Plasmodia” value (Plasmodia) is listed as “active”.
